85 compounds from PubChem BioAssay AID2305 (GlaxoSmithKline (GSK), 2010) can be followed below.

A word on the IC50: it is the concentration that inhibits the measured activity by half.

The assay relates to P. falciparum 3D7 growth, pLDH absorbance. Kind of assay: blood-stage malaria parasite growth potency – strain 3D7, dose response (AID 2305).
Take `CCCc1cc(Cc2cnc(N)nc2N)cc(CC)c1O`: the IC50 came out at 1320 nM.

Turning to `CC1(C)CCCN(C(=O)c2cccc(-n3nc(-c4ccc(Cl)cc4)cc3N)c2)C1`, the IC50 was found to be 710 nM. This IC50 lies about 1.9-fold lower than the previous one.

As for `Cc1ccc2nc(C)cc(NN=Cc3ccc(Cl)cc3)c2c1`, the IC50 was found to be 990 nM.

For the compound `CC(C)CNC(=O)c1ccnc(-c2ccc(CNCCCc3ccccc3)cc2)c1`, the concentration for half-maximal inhibition (IC50) is 730 nM. As for `Cc1ccc2nc(-c3ccc(C=CC(=O)NCc4ccc(Cl)c(Cl)c4)cc3)[nH]c2c1`, the figure is 900 nM; as for `c1ccc(CN2CCC(NCc3cccc(-c4cncc5ccccc45)c3)CC2)cc1`, 1360 nM. The same measure for `CC(C)NCc1ccc(-c2cccc(-c3nc4ccc(C(F)(F)F)cc4[nH]3)c2)cc1`: 260 nM; for `CCc1ccc(-c2nc3cc(NC(=O)c4cc([N+](=O)[O-])cc([N+](=O)[O-])c4)ccc3o2)cc1`: 930 nM. The same measure for `CC(C)NCc1ccc(-c2cccc(NC(=O)c3ccc(C#N)cc3)c2)cc1`: 740 nM; for `CCCCCCN(CCCCCC)CCCCNc1c2ccc(Cl)cc2nc2ccc(OC)cc12`: 540 nM; for `Cc1cc(N2CC=CCC2)nc(/N=C(\N)Nc2ccc(Br)cc2)n1`: 690 nM. In turn, `CCN(CC)CCCNC(=O)/C(=C/C=C/c1cc2cc(Cl)c(Cl)cc2[nH]1)OC` came in with an IC50 of 1160 nM. As for `CC(C)NCc1ccc(-c2ccc(-c3nc4ccc(C(F)(F)F)cc4[nH]3)cc2)cc1`, the IC50 was found to be 270 nM.

`Cc1ccc2[nH]c(-c3ccc(C(=O)NCc4ccc(Cl)c(Cl)c4)cc3)nc2c1C` displayed an IC50 of 790 nM. On to `O=C(Nc1cccc(C(F)(F)F)c1)c1ccc(S(=O)(=O)NCC2CCCN2CC2CCCCC2)cc1` (stereo not given), for which the IC50 turned out to be 750 nM.

`CCc1c(C(=O)NC2CCC(N3CCC(c4ccccc4OC)CC3)CC2)[nH]c2ccc(Br)cc12` (stereo not given) had an IC50 of 1120 nM.

Regarding `Cc1ccccc1C1CCN(C2CCC(NC(=O)c3cc(-c4ccc(Cl)cc4)cs3)CC2)CC1` (stereo not given), the IC50 was 160 nM. The compound `CC(=O)c1cccc(NC(=O)NC2CCN(CCCCCNC(=O)/C=C/c3ccc(Cl)c(Cl)c3)CC2)c1` came in with an IC50 of 840 nM. As for `C=C(C)C1CC=C(CN2CCCC(n3ccc4cc(NC(=O)c5ccco5)ccc43)CC2)CC1` (stereo not given), the figure is 750 nM; as for `c1ccc(Oc2cccc(Nc3ccnc4ccccc34)c2)cc1`, 1110 nM. As for `COc1cc(NC(=O)c2nn(CCCN3CCC4(CC3)C(=O)NCN4c3ccccc3)cc2-c2ccc(Cl)c(Cl)c2)cc(OC)c1OC`, the figure is 750 nM; as for `COc1cc(NCC(O)CNc2cc(OC)c3ccccc3n2)nc2ccccc12`, 110 nM; as for `COc1ccc(CN(C)CCCc2ccc(NC(=O)c3cccc4c(=O)c5cccc(F)c5[nH]c34)cc2)cc1OC`, 940 nM. The same measure for `CCC1(C)CC(CCNCc2ccccc2O)(c2ccccc2OC)CCO1` (stereo not given): 720 nM. `O=C(Nc1ccc(-c2nc3ccccc3[nH]2)cc1)c1ccc(Cl)s1` came in with an IC50 of 590 nM. The IC50 values of the last two compounds are within 1.5-fold of each other. With `Cc1cc(NCCC(=O)NCc2cccc(F)c2)nc(Nc2ccccc2)n1`, the concentration for half-maximal inhibition (IC50) was 1050 nM. For the compound `O=c1cc(NCC2(CNCc3cn(Cc4ccccc4)c4ccccc34)CCCCC2)[nH]c2ccccc12`, the IC50 stood at 680 nM. Compared with the last compound, the IC50 is about 1.5-fold lower. As for `COC(=O)c1ccc(CC(C)NCC(O)c2cccc(Cl)c2Cl)cc1` (stereo not given), the IC50 was found to be 550 nM. The same measure for `Cn1cnc(CCNC(=O)c2cccc(-c3ccc(-c4nc5ccc(F)cc5[nH]4)cc3)c2)c1`: 940 nM.

`COCCNc1nc(N2CCC(CNC(=O)c3ccc(-c4ccc(C(=O)N(C)C)cc4C)cc3)CC2)nc2cc(OC)c(OC)cc12` had an IC50 of 1020 nM. The same measure for `COc1ccc2nccc([C@@H](O)CN3CCC(NCc4cc5c(F)ccc(F)c5[nH]4)CC3)c2n1`: 700 nM. Consider `C[C@H](Cc1ccc(S(=O)(=O)c2ccc(C[C@@H](C)NC[C@H](O)c3cccc(Cl)c3)cc2)cc1)NC[C@H](O)c1cccc(Cl)c1`, for which the IC50 came out at 260 nM. As for `Clc1ccc(Cc2nc3ccccc3[nH]2)cc1Cl`, the figure is 250 nM. The compound `Cc1cc(NN=Cc2cccc([N+](=O)[O-])c2)c2ccc(F)cc2n1` had an IC50 of 690 nM. As for `Nc1nc(N)c2c(ccc3nn(S(=O)(=O)N4CCCC4)cc32)n1`, the figure is 100 nM; as for `Cc1cc(NC(=O)[C@@H](Nc2ccc(C#N)c3ccccc23)C2CCCCC2)ccc1F`, 890 nM; as for `N#Cc1cccc(C(=O)Nc2cccc(-c3ccc(C(=O)Nc4cccnc4)cc3)c2)c1`, 690 nM. As for `CS(=O)(=O)NCCCNCc1ccc(-c2ccc(-c3nc4ccc(C(F)(F)F)cc4[nH]3)cc2)cc1`, the figure is 460 nM. As for `Cc1cc(N2CC=CCC2)nc(/N=C(\N)Nc2ccc(Cl)cc2)n1`, the IC50 stood at 780 nM. As for `O=C(NC1CCC1)C1CCN(C(c2ccccc2)c2cc(F)cc(F)c2)CC1` (stereo not given), the figure is 800 nM; as for `CN1CCC(NCc2ccc(-c3cccc(S(=O)(=O)NCc4ccccc4)c3)cc2)CC1`, 320 nM; as for `CN1CCN(c2ncnc3ccc(NC(=O)Nc4ccc(Cl)c(Cl)c4)cc23)CC1`, 260 nM.

On to `CCCCCCN1CCC(NCc2ccc(C(F)(F)F)cc2)CC1`, for which the IC50 is 370 nM. The compound `CC(CN1CCN(C)CC1)C(=O)Nc1ccc(-c2csc(-c3nc4ccccc4[nH]3)c2)cc1` (stereo not given) gave an IC50 of 840 nM. Turning to `O=C(Nc1cccc(Cl)c1Cl)N[C@H]1CCN(CCCCCNC(=O)[C@@H]2C[C@H]2c2ccc(Cl)c(Cl)c2)C1`, the IC50 came out at 1280 nM. Against the preceding compound, the IC50 is about 1.5-fold higher. The same measure for `CCOC(=O)c1c(CCc2ccc(C(F)(F)F)cc2)nc2c(c1-c1ccc(C(=O)N[C@@H](C)c3ccncc3)cc1)C(=O)N1CCC[C@@H]21`: 920 nM; for `COC(=O)c1ccc(CC(C)NCC(O)c2cc(Cl)c(N)c(Cl)c2)cc1` (stereo not given): 880 nM. On to `O=S(=O)(NCCN1CCCC1)c1ccc(-c2ccc(CNCc3ccsc3)cc2)cc1F`, for which the IC50 was 810 nM. This IC50 and that of the compound before are within 1.5-fold of each other. As for `COc1cc2c(cc1CCNCCCCNCCc1cc3c(cc1OC)CCCC3)CCCC2`, the figure is 1000 nM; as for `COCCNCc1nc(-c2ccc3c(Nc4ccc(F)c(O)c4)ccnc3c2)cs1`, 690 nM; as for `CN1CCN(CCCN(Cc2cccc(-c3ccc(CNCCc4ccccc4)cc3)c2)C(=O)c2cccs2)CC1`, 720 nM. The same measure for `COc1ccc2nccc([C@@H](O)CN3CCC(NCCOc4cccc(C(F)(F)F)c4)CC3)c2c1`: 160 nM. The same measure for `CCCC(C)Nc1nc(C)cc(N[C@@H](CC(C)C)C(=O)NCc2cccc(F)c2)n1` (stereo not given in full): 1000 nM.

In turn, `OC[C@H]1CCCN1CC#Cc1cc2c(Nc3ccc(OCc4cccc(F)c4)c(Cl)c3)ncnc2s1` displayed an IC50 of 1210 nM. With `Cc1nn(-c2ccccc2)c2c1C(c1ccc(C(C)C)cc1)N1C(=N2)N(Cc2ccccc2)c2ccccc21` (stereo not given), the IC50 was 780 nM.

Consider `NS(=O)(=O)c1cccc(Nc2nc(N[C@@H]3CCNC3)nc3cc[nH]c(=O)c23)c1`, for which the IC50 was determined as 940 nM. Take `COc1ccc2cc(C(c3nnnn3CC3CCCO3)N3CCc4ccccc43)c(=O)[nH]c2c1` (stereo not given): the IC50 stood at 800 nM. The same measure for `O=C(Cc1ccccc1)NC(CCN1CCC(N(C2CC2)S(=O)(=O)c2cccc(C(F)(F)F)c2)CC1)c1ccc(Cl)c(Cl)c1` (stereo not given): 1270 nM. Compound `COC(=O)c1ccc(NC(=O)c2ccc(CCN3CCC(c4nc(COCC(F)(F)F)c(-c5ccc(F)cc5)o4)CC3)cc2)cc1` returned an IC50 of 1040 nM. The same measure for `O=C(Nc1ccc(C(F)(F)F)cc1)NC1CCN(c2ccnc3ccccc23)CC1`: 180 nM; for `COc1cc(F)c2nccc([C@@H](O)CN3CCC(NCc4ccc5c(n4)NC(=O)CS5)CC3)c2c1`: 560 nM; for `Fc1ccc2nc(-c3cccc(-c4ccc(CNCCc5ccncc5)cc4)c3)[nH]c2c1`: 110 nM. `CCOC(C(=O)OCC1CCCN1C(C)C)(c1ccccc1)c1ccccc1` (stereo not given) gave an IC50 of 760 nM. As for `COc1cc2c(cc1OC)C(c1ccc(Br)cc1)CN(C)CC2` (stereo not given), the figure is 940 nM.

As for `COc1cc(-n2c(CN3CCCC3)nc3cc(-c4ccc(Cl)cc4)sc3c2=O)ccc1OCCN1CCCC1`, the IC50 is 1040 nM. As for `CN(C)c1cc(NC(=O)Nc2ccccc2)c2ccccc2n1`, the figure is 410 nM; as for `CCNC(=O)c1ccc(-n2nc(C)cc2-c2ccccc2)cc1`, 1120 nM; as for `COc1ccc(C2C(C(=O)Nc3cc(Cl)c(OC)cc3OC)c3ccccc3C(=O)N2C)cc1` (stereo not given), 820 nM. The same measure for `CC1CCN(CC[C@H]2CCCN2S(=O)(=O)c2cccc(NC(=O)c3ccc(-c4ccc(Cl)cc4)o3)c2)CC1`: 690 nM; for `O=C(Nc1ccc(-c2cccc(CN3CCC(O)CC3)c2)cc1)c1cccc(Cl)c1`: 830 nM.

`COc1ccc(CN(C)Cc2ccc(NC(=O)c3cccc4c(=O)c5cccc(C)c5[nH]c34)cc2)cc1OC`: the IC50 stood at 840 nM. This IC50 and that of the compound before are within 1.5-fold of each other. Consider `COc1ccc2nccc([C@@H](O)CN3CCC(NC(=O)C(=Cc4ccc(C#N)cc4)c4ccc(-c5ccccc5)cc4)CC3)c2c1`, for which the IC50 turned out to be 740 nM. The same measure for `CCOC(=O)Cc1nc(N)c(C(=O)OCC)[nH]1`: 650 nM; for `CCCNCc1ccc(-c2ccc(CN(C(=O)c3nn(-c4ccccc4)nc3C)C3CCOCC3)cc2)nc1`: 140 nM. The same measure for `CCCNc1ccc2nccc(CCN3CCC(NCc4ccc5c(n4)NC(=O)CS5)CC3)c2n1`: 720 nM. As for `O=c1cc(NCCC(CNCc2ccoc2)NCc2cc(Br)cc(Br)c2)[nH]c2ccccc12` (stereo not given), the figure is 910 nM; as for `CCN(CC)CCCCNc1cc(-c2[nH]c(-c3c(Cl)cccc3Cl)nc2-c2ccc3cc(OC)ccc3c2)ccn1`, 960 nM; as for `Cn1c(Nc2cc(C(C)(C)C)on2)nc2cc(Nc3ccnc(Nc4cccc(CS(C)(=O)=O)c4)n3)ccc21`, 570 nM. As to `COc1ccc(C(=O)N2CCC3(CC2)C(=O)N(CC(=O)NCC2CCCCC2)CN3c2ccccc2)c(OC)c1`, the 50% inhibitory concentration (IC50) amounted to 120 nM.

`Cc1cccc2[nH]c(-c3cccc(-c4ccc(C(=O)NCCc5ccc(O)c(=O)[nH]5)cc4)c3)nc12` came in with an IC50 of 1190 nM. As for `O=C(C1CCCCC1)N1CCOC(CCN2CCC(c3ccccc3)CC2)(c2ccc(Cl)c(Cl)c2)C1` (stereo not given), the figure is 930 nM; as for `CC(C)c1ncc(-c2ccncc2)c(C2CCC(CNC(=O)c3cccnc3)CC2)n1` (stereo not given), 780 nM; as for `CCc1c(CCNC/C=C/C=C/CNCCc2ccc(OC)c(OC)c2CC)ccc(OC)c1OC`, 970 nM. As for `CCCCCCCCCn1c(NCc2cc(Cl)ccc2O)nc2ccccc21`, the figure is 830 nM; as for `CCCc1cc(N2CCC(c3ccccc3)(N3CCCCC3)CC2)nc(Nc2ccc(OC)cc2)n1`, 1090 nM.
